Assay [1] can be described thus: Selectivity index was determined by the ratio for IC50 of rat liver DHFR to the IC50 of Toxoplasma gondii DHFR; Range: 55-65.
Assay [2] is described as follows: Selectivity index was determined by the ratio for IC50 of rat liver DHFR to the IC50 of Mycobacterium avium DHFR; Range: 140-230.
The target in assay [3] is T1, Dihydrofolate reductase (Rattus norvegicus, UniProt Q920D2).
T1 sequence (Q920D2 whole entry): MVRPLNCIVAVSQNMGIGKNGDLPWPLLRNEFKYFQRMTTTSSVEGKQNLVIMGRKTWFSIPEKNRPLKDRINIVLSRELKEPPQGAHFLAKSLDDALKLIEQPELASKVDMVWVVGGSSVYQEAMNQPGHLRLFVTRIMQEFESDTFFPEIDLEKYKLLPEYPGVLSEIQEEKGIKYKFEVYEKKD
Nature of the assay: Concentration required to inhibit the rat liver Dihydrofolate reductase by 50% was determined; Range: 1100-1500.

A short description of assay [4]: Selectivity index was determined by the ratio for IC50 of rat liver DHFR to the IC50 of Pneumocystis carinii DHFR; Range: 80-150.
Assay [5] deals with T2, Bifunctional dihydrofolate reductase-thymidylate synthase (Toxoplasma gondii, UniProt Q07422).
T2 sequence (Q07422 whole entry): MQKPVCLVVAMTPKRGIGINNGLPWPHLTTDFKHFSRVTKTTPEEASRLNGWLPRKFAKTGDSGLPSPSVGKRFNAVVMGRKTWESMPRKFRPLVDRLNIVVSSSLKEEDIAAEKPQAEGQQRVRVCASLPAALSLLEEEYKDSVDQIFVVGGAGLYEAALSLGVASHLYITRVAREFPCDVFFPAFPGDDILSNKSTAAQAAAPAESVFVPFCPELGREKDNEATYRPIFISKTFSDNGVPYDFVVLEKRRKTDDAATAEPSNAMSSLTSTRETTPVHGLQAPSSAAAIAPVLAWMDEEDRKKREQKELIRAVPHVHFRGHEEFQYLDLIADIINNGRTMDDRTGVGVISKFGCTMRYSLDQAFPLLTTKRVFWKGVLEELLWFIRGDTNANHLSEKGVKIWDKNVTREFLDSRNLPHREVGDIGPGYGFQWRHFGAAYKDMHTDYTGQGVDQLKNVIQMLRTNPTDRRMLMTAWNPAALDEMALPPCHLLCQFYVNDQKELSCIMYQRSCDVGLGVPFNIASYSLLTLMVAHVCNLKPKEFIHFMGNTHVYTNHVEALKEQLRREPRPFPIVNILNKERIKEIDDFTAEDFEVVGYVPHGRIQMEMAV
Kind of assay: Concentration required to inhibit the Toxoplasma gondii Dihydrofolate reductase by 50% was determined; Range: 20-23.

Assay [6] deals with T3, Dihydrofolate reductase (Mycobacterium avium, UniProt O30463).
T3 sequence (O30463 whole entry): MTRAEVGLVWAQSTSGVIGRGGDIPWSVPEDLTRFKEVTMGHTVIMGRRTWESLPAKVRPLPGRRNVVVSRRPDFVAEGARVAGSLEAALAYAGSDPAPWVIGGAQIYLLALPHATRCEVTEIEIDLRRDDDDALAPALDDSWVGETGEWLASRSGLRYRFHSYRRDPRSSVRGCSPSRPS
Kind of assay: Concentration required to inhibit the Mycobacterium avium Dihydrofolate reductase by 50% was determined; Range: 6.5-8.0.

Assay [7] has as its target T4, Dihydrofolate reductase (Pneumocystis carinii, UniProt P16184).
T4 sequence (P16184 whole entry): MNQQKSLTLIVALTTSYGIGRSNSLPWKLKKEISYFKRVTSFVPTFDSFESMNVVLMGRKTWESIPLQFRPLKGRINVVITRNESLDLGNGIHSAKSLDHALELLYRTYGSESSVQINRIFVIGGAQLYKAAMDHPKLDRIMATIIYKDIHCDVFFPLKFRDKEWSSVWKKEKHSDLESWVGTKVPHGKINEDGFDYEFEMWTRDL
Nature of the assay: Concentration required to inhibit the Pneumocystis carinii Dihydrofolate reductase by 50% was determined; Range: 9.8-12.

Assay [8] can be described thus: Selectivity index was determined by the ratio for IC50 of rat liver DHFR to the IC50 of Pneumocystis carinii DHFR; Range: 12-63.
Assay [9] is described as follows: Selectivity index was determined by the ratio for IC50 of rat liver DHFR to the IC50 of Mycobacterium avium DHFR; Range: 250-330.
The target in assay [10] is T1, Dihydrofolate reductase. Kind of assay: Concentration required to inhibit the rat liver Dihydrofolate reductase by 50% was determined; Range: 1100-1200.
Assay [11] has as its target T3, Dihydrofolate reductase. Kind of assay: Concentration required to inhibit the Mycobacterium avium Dihydrofolate reductase by 50% was determined; Range: 3.6-4.4.
In assay [12] the target is T2, Bifunctional dihydrofolate reductase-thymidylate synthase. Kind of assay: Concentration required to inhibit the Toxoplasma gondii Dihydrofolate reductase by 50% was determined; Range: 25-30.
In assay [13] the target is T4, Dihydrofolate reductase. Kind of assay: Concentration required to inhibit the Pneumocystis carinii Dihydrofolate reductase by 50% was determined; Range: 19-29.
Assay [14] is described as follows: Selectivity index was determined by the ratio for IC50 of rat liver DHFR to the IC50 of Toxoplasma gondii DHFR; Range: 37-48.
Assay [15] in a line: Selectivity index was determined by the ratio for IC50 of human DHFR to the IC50 of Mycobacterium avium DHFR.
Assay [16] concerns the target T3, Dihydrofolate reductase. Nature of the assay: Concentration required to inhibit the Mycobacterium avium Dihydrofolate reductase by 50% was determined.
A short description of assay [17]: Selectivity index was determined by the ratio for IC50 of rat liver DHFR to the IC50 of Mycobacterium avium DHFR.
Assay [18] addresses T1, Dihydrofolate reductase. Kind of assay: Concentration required to inhibit the rat liver Dihydrofolate reductase by 50% was determined.
A short description of assay [19]: Selectivity index was determined by the ratio for IC50 of rat liver DHFR to the IC50 of Toxoplasma gondii DHFR.
Assay [20] concerns the target T2, Bifunctional dihydrofolate reductase-thymidylate synthase. Nature of the assay: Concentration required to inhibit the Toxoplasma gondii Dihydrofolate reductase by 50% was determined.
Assay [21] has the same target.
In assay [22] the target is T1, Dihydrofolate reductase.
In assay [23] the target is T4, Dihydrofolate reductase.
Description: Concentration required to inhibit the Pneumocystis carinii Dihydrofolate reductase by 50% was determined; Range: 0.88-1.2
The target of assay [24] is T3, Dihydrofolate reductase.
Assay [25] deals with T2, Bifunctional dihydrofolate reductase-thymidylate synthase. Nature of the assay: Concentration required to inhibit the Toxoplasma gondii Dihydrofolate reductase by 50% was determined (reported by Hoffman-LaRoche group).
Assay [26] concerns the target T5, Dihydrofolate reductase (Homo sapiens, UniProt P00374).
T5 sequence (P00374 whole entry): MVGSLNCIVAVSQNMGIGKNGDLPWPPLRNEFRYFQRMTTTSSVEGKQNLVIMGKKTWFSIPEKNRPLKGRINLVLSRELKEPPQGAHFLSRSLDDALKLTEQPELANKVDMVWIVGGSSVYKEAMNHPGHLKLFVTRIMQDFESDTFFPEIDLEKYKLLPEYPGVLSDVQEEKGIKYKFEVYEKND
Kind of assay: Concentration required to inhibit the human Dihydrofolate reductase by 50% was determined (reported by Hoffman-LaRoche group).

The target of assay [27] is T5, Dihydrofolate reductase. Kind of assay: Concentration required to inhibit the human Dihydrofolate reductase by 50% was determined.
A short description of assay [28]: Selectivity index was determined by the ratio for IC50 of rat liver DHFR to the IC50 of Mycobacterium avium DHFR; […].
For assay [29], the target named is T2, Bifunctional dihydrofolate reductase-thymidylate synthase. Kind of assay: Concentration required to inhibit the Toxoplasma gondii Dihydrofolate reductase by 50% was determined; […].
For assay [30], the target named is T4, Dihydrofolate reductase. Kind of assay: Concentration required to inhibit the Pneumocystis carinii Dihydrofolate reductase by 50% was determined; Range: 58-110.
The target in assay [31] is T1, Dihydrofolate reductase. Nature of the assay: Concentration required to inhibit the rat liver Dihydrofolate reductase by 50% was determined; […].
Assay [32] can be described thus: Selectivity index was determined by the ratio for IC50 of rat liver DHFR to the IC50 of Toxoplasma gondii DHFR; Range: 53-113.
The target in assay [33] is T1, Dihydrofolate reductase. Nature of the assay: Concentration required to inhibit the rat liver Dihydrofolate reductase by 50% was determined; Range: 370-440.
Assay [34] in a line: Selectivity index was determined by the ratio for IC50 of rat liver DHFR to the IC50 of Pneumocystis carinii DHFR; Range: 11-16.
The target of assay [35] is T2, Bifunctional dihydrofolate reductase-thymidylate synthase. Nature of the assay: Concentration required to inhibit the Toxoplasma gondii Dihydrofolate reductase by 50% was determined; Range: 23-30.
The target in assay [36] is T3, Dihydrofolate reductase. Kind of assay: Concentration required to inhibit the Mycobacterium avium Dihydrofolate reductase by 50% was determined; Range: 1.2-1.4.
The nature of assay [37]: Selectivity index was determined by the ratio for IC50 of rat liver DHFR to the IC50 of Toxoplasma gondii DHFR; Range: 12-19.
A short description of assay [38]: Selectivity index was determined by the ratio for IC50 of rat liver DHFR to the IC50 of Mycobacterium avium DHFR; Range: 260-370.
Assay [39] has as its target T4, Dihydrofolate reductase. The source holds these as a separate data set.
The target of assay [40] is T2, Bifunctional dihydrofolate reductase-thymidylate synthase. The source holds these as a separate data set.
Description: Concentration required to inhibit the Toxoplasma gondii Dihydrofolate reductase by 50% was determined; Range: 8.9-11
The target in assay [41] is T1, Dihydrofolate reductase. The source holds these as a separate data set.
Assay [42] addresses T3, Dihydrofolate reductase. This is another data set of the same source.
In assay [43] the target is T4, Dihydrofolate reductase. This is another data set of the same source.
Description: Concentration required to inhibit the Pneumocystis carinii Dihydrofolate reductase by 50% was determined; Range: 0.92-1.3
Assay [44] has as its target T3, Dihydrofolate reductase. This is another data set of the same source.
Description: Concentration required to inhibit the Mycobacterium avium Dihydrofolate reductase by 50% was determined; Range: 6.2-11
The target in assay [45] is T1, Dihydrofolate reductase. Nature of the assay: Concentration required to inhibit the rat liver Dihydrofolate reductase by 50% was determined; Range: 250-300.
Assay [46] deals with T4, Dihydrofolate reductase. Kind of assay: Concentration required to inhibit the Pneumocystis carinii Dihydrofolate reductase by 50% was determined; Range: 18-25.
Assay [47] is described as follows: Selectivity index was determined by the ratio for IC50 of rat liver DHFR to the IC50 of Toxoplasma gondii DHFR; Range: 10-25.
For assay [48], the target named is T2, Bifunctional dihydrofolate reductase-thymidylate synthase. The source holds these as a separate data set.
Description: Concentration required to inhibit the Toxoplasma gondii Dihydrofolate reductase by 50% was determined; Range: 12-24
A short description of assay [49]: Selectivity index was determined by the ratio for IC50 of rat liver DHFR to the IC50 of Pneumocystis carinii DHFR; Range: 10-17.
Assay [50] in a line: Selectivity index was determined by the ratio for IC50 of rat liver DHFR to the IC50 of Mycobacterium avium DHFR; Range: 23-48.

One may read the IC50 as the concentration that inhibits the measured activity by half. A higher IC50 goes with weaker potency in that assay.

On to `Nc1nc(N)c2nc(CN3c4ccccc4C=Cc4cc(OCCCCC(=O)O)ccc43)cnc2n1`, for which the SI in [1] amounted to 62; in assay [2], 180; in [4] it was 120. Besides, the half-inhibitory concentration (IC50) stood at 1300 nM against Dihydrofolate reductase [3], 21 nM in assay [5], 7.2 nM on Dihydrofolate reductase [6] and 11 nM on Dihydrofolate reductase [7].
As for `Nc1nc(N)c2nc(CN3c4ccccc4C=Cc4cc(OCCC(=O)O)ccc43)cnc2n1`, the SI in [8] came out at 46; in assay [9] it was 280; in assay [14], 39. Also, the IC50 on Dihydrofolate reductase [10] came to 1100 nM; at Dihydrofolate reductase [11] it was 4 nM; in assay [12], 28 nM; against Dihydrofolate reductase [13], 24 nM.
`CCCOc1cc(NCc2cnc3nc(N)nc(N)c3c2C)cc(OCCC)c1`: in assay [15], the SI was 7300. The IC50 against Dihydrofolate reductase [16] was found to be 0.19 nM.
On to `CCc1nc(N)nc(N)c1-c1ccc(Cl)c(/N=N/N(CCOC(C)=O)Cc2ccccc2)c1`, for which the SI in assay [17] is above 1000. Moreover, the IC50 on Dihydrofolate reductase [16] was below 1 nM.
For the compound `Nc1nc(N)c2nc(CSc3ccc(Sc4ccccc4)cc3)cnc2n1`, the IC50 is 250000 nM at Dihydrofolate reductase [18] and 770 nM in [20]. For the same compound, the SI in assay [19] was found to be 320.
`COc1ccc(OC)c(CCc2cnc3nc(N)nc(N)c3c2C)c1`: in assay [19], the SI amounted to 98.
Turning to `Nc1nc(N)c2nc(CN3c4ccccc4C=Cc4cc(OCc5ccc(C(=O)O)cc5)ccc43)cnc2n1`, the IC50 in assay [21] was found to be 22 nM; against Dihydrofolate reductase [22] it was 580 nM; at Dihydrofolate reductase [23], 1 nM; on Dihydrofolate reductase [24], 0.75 nM.
Consider `CCOc1cc(Cc2cnc(N)nc2N)cc(OCC)c1-n1cccc1` [EPIROPRIM], for which the IC50 in [25] worked out at 900 nM; on Dihydrofolate reductase [26], 600000 nM; at Dihydrofolate reductase [27] it was 600000 nM; against Dihydrofolate reductase [16] it was 4.1 nM. In assay [19], the SI was 670.
As to `Nc1nc(N)c2nc(CN3c4ccccc4C=Cc4ccccc43)cnc2n1`, the results for the SI in assay [28] and in assay [32] were 250 and 77, respectively. In addition, the IC50 in assay [29] is 39 nM; at Dihydrofolate reductase [30], 79 nM; on Dihydrofolate reductase [31], 3000 nM.
Turning to `Nc1nc(N)c2nc(CN3c4ccccc4C=Cc4cc(O)ccc43)cnc2n1`, the concentration for half-maximal inhibition (IC50) at Dihydrofolate reductase [33] was found to be 410 nM; in [35], 26 nM; at Dihydrofolate reductase [36], 1.3 nM; on Dihydrofolate reductase [39], 31 nM. Further, the SI in assay [34] was found to be 13; in assay [37], 16; in [38], 320.
In the case of `Nc1nc(N)c2nc(CN3c4ccccc4C=Cc4cc(OCCCC(=O)O)ccc43)cnc2n1`, the concentration for half-maximal inhibition (IC50) in assay [40] amounted to 9.9 nM; against Dihydrofolate reductase [41], 1500 nM; against Dihydrofolate reductase [42], 2 nM; at Dihydrofolate reductase [43] it was 1.1 nM.
For `Nc1nc(N)c2nc(CN3c4ccccc4C=Cc4cc(OCC(=O)O)ccc43)cnc2n1`, the IC50 worked out at 8.2 nM on Dihydrofolate reductase [44], 280 nM against Dihydrofolate reductase [45], 21 nM against Dihydrofolate reductase [46] and 17 nM in [48]. Besides, the values for the SI in assay [47], in assay [49] and in [50] were 16, 13 and 34, respectively.

The values above are taken from ChEMBL document CHEMBL1149188, “Synthesis of 2,4-diamino-6-[2'-O-(omega-carboxyalkyl)oxydibenz[b,f]azepin-5-yl]methylpteridines as potent and selective inhibitors of Pneumocystis carinii, Toxoplasma gondii, and Mycobacterium avium dihydrofolate reductase” (J Med Chem, 2004).
